Data published in ChEMBL document CHEMBL1201862, “PubChem BioAssay data set” (2004).
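Each compound was tested at five concentrations against cells in 96-well plates for 48 hours. The concentration for 50% growth inhibition is given as GI50.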 Calls of active or inactive are those of the source. Rule as the data show it: active = GI50 up to about 1.1 µM and inactive = higher.

Key:
Assay in all cases: NCI anticancer screen, dose series, 48 h
SK-OV-3 = tested on: SK-OV-3
CAKI-1 = tested on: CAKI-1
SF-539 = tested on: SF-539
KM12 = tested on: KM12
IGROV-1 = tested on: IGROV-1
ACHN = tested on: ACHN
MDA-MB-231 = tested on: MDA-MB-231
HT-29 = tested on: HT-29
U-251 = tested on: U-251
Malme-3M = tested on: Malme-3M
MOLT-4 = tested on: MOLT-4
RXF 393 = tested on: RXF 393
K562 = tested on: K562
NCI-H23 = tested on: NCI-H23
SK-MEL-5 = tested on: SK-MEL-5
DU-145 = tested on: DU-145
MDA-MB-435 = tested on: MDA-MB-435
NCI/ADR-RES = tested on: NCI/ADR-RES

Measured: GI50

C=CN1CCN(c2ccccc2)P1(=O)Oc1ccccc1 (stereo not drawn)
inactive: SK-OV-3 > 100 µM | CAKI-1 > 100 µM | SF-539 > 100 µM | KM12 > 100 µM | IGROV-1 53.7 µM | ACHN 48.8 µM | MDA-MB-231 55.6 µM | HT-29 92.9 µM | U-251 > 100 µM | Malme-3M > 100 µM | MOLT-4 > 100 µM | RXF 393 42.5 µM | K562 > 100 µM | NCI-H23 > 100 µM | SK-MEL-5 87.7 µM | DU-145 > 100 µM | MDA-MB-435 90.6 µM | NCI/ADR-RES 55.2 µM

CC(C)c1cc2c(cc1S(=O)(=O)O)[C@@]1(C)CCC[C@@](C)(C(=O)O)C1CC2 (stereo partly drawn)
inactive: SK-OV-3 > 100 µM | CAKI-1 > 100 µM | SF-539 > 100 µM | KM12 > 100 µM | IGROV-1 > 100 µM | ACHN > 100 µM | MDA-MB-231 > 100 µM | HT-29 > 100 µM | U-251 > 100 µM | Malme-3M > 100 µM | MOLT-4 > 100 µM | RXF 393 > 100 µM | K562 > 100 µM | NCI-H23 > 100 µM | SK-MEL-5 > 100 µM | DU-145 > 100 µM | MDA-MB-435 > 100 µM | NCI/ADR-RES > 100 µM

COc1cccc2c(=O)oc(-c3ccccc3C)nc12
inactive: SK-OV-3 > 100 µM | CAKI-1 35.2 µM | SF-539 25.5 µM | KM12 38 µM | IGROV-1 18.7 µM | ACHN 43 µM | MDA-MB-231 63.7 µM | HT-29 39 µM | U-251 45.4 µM | Malme-3M 42.2 µM | MOLT-4 26.7 µM | RXF 393 30 µM | K562 39.8 µM | NCI-H23 61.4 µM | SK-MEL-5 23 µM | DU-145 61 µM | MDA-MB-435 33.6 µM | NCI/ADR-RES 29.2 µM

COc1cc(/C=C/c2sc3ccccc3[n+]2C)ccc1N(C)C
inactive: SK-OV-3 23.6 µM | CAKI-1 35.6 µM | SF-539 17.3 µM | KM12 3.62 µM | IGROV-1 7.41 µM | ACHN 11.1 µM | MDA-MB-231 6.14 µM | HT-29 17.9 µM | U-251 6.9 µM | Malme-3M 2.49 µM | MOLT-4 4.55 µM | RXF 393 16.6 µM | K562 2.1 µM | NCI-H23 11.5 µM | SK-MEL-5 4.14 µM | DU-145 13.6 µM | MDA-MB-435 3.32 µM | NCI/ADR-RES > 10 µM

CC1CC2OC(=N)C1(C#N)C2(C#N)C#N (stereo not drawn)
inactive: SK-OV-3 > 100 µM | CAKI-1 7.57 µM | SF-539 22.5 µM | KM12 39.3 µM | IGROV-1 20.3 µM | ACHN 31.4 µM | MDA-MB-231 17.2 µM | HT-29 19.4 µM | U-251 27.9 µM | Malme-3M 15.8 µM | MOLT-4 24.7 µM | RXF 393 16.1 µM | K562 17.9 µM | NCI-H23 23.6 µM | SK-MEL-5 10.4 µM | DU-145 56.6 µM | MDA-MB-435 34 µM | NCI/ADR-RES 29.1 µM

Nc1ccccc1N/C=C\C(=O)C(Cl)(Cl)Cl
inactive: SK-OV-3 25.2 µM | CAKI-1 19.6 µM | SF-539 28.4 µM | KM12 15.5 µM | IGROV-1 16.4 µM | ACHN 16.3 µM | MDA-MB-231 47.1 µM | HT-29 18.9 µM | U-251 25.6 µM | Malme-3M 33.2 µM | MOLT-4 11 µM | RXF 393 20.1 µM | K562 17.1 µM | NCI-H23 22.7 µM | SK-MEL-5 44 µM | DU-145 26.7 µM | MDA-MB-435 14.8 µM | NCI/ADR-RES 31 µM

CCOC(=O)c1cn2c(n1)sc1c(Cl)c(Cl)ccc12
inactive: SK-OV-3 > 51.8 µM | CAKI-1 9.86 µM | SF-539 6.76 µM | KM12 5.36 µM | IGROV-1 13.8 µM | ACHN 15.3 µM | MDA-MB-231 26.7 µM | HT-29 12 µM | U-251 11 µM | Malme-3M 1.96 µM | MOLT-4 8.71 µM | RXF 393 23.8 µM | K562 3.96 µM | NCI-H23 29.4 µM | SK-MEL-5 6.7 µM | DU-145 18.1 µM | MDA-MB-435 3.31 µM | NCI/ADR-RES 8.38 µM

COc1ccc2c(C)cc(N/N=C/c3ccc(C)s3)nc2c1
inactive: SK-OV-3 17 µM | CAKI-1 13.5 µM | SF-539 13.6 µM | KM12 5.18 µM | IGROV-1 7.82 µM | ACHN 18 µM | MDA-MB-231 6.49 µM | HT-29 3.21 µM | U-251 13.7 µM | Malme-3M 17.7 µM | MOLT-4 5.94 µM | RXF 393 14.3 µM | K562 3.61 µM | NCI-H23 12.3 µM | SK-MEL-5 3.43 µM | DU-145 6.49 µM | MDA-MB-435 16.3 µM | NCI/ADR-RES 9.82 µM

CC1(C)OC(=O)C(C)(C)OC1=O
inactive: SK-OV-3 > 100 µM | CAKI-1 > 100 µM | SF-539 > 100 µM | KM12 > 100 µM | IGROV-1 > 100 µM | ACHN > 100 µM | MDA-MB-231 > 100 µM | HT-29 > 100 µM | U-251 > 100 µM | Malme-3M > 100 µM | MOLT-4 > 100 µM | RXF 393 > 100 µM | K562 > 100 µM | NCI-H23 > 100 µM | SK-MEL-5 > 100 µM | DU-145 > 100 µM | MDA-MB-435 > 100 µM | NCI/ADR-RES > 100 µM

COc1cc2c3c(c1)CCCN3CCC2
inactive: SK-OV-3 > 10 µM | CAKI-1 > 10 µM | SF-539 > 10 µM | KM12 > 10 µM | IGROV-1 > 10 µM | ACHN > 10 µM | MDA-MB-231 > 10 µM | HT-29 > 10 µM | U-251 > 10 µM | Malme-3M > 10 µM | MOLT-4 > 10 µM | RXF 393 > 10 µM | K562 > 10 µM | NCI-H23 > 10 µM | SK-MEL-5 > 10 µM | DU-145 > 10 µM | MDA-MB-435 > 10 µM | NCI/ADR-RES > 10 µM

O=C1C=CC(=O)c2c1ccc1c3ccccc3n(CCCCCCCCn3c4ccccc4c4ccc5c(c43)C(=O)C=CC5=O)c21
inactive: SK-OV-3 > 100 µM | CAKI-1 > 100 µM | SF-539 > 100 µM | KM12 > 100 µM | IGROV-1 > 100 µM | ACHN > 100 µM | MDA-MB-231 > 100 µM | HT-29 > 100 µM | U-251 > 100 µM | Malme-3M > 100 µM | MOLT-4 85.7 µM | RXF 393 > 100 µM | K562 > 100 µM | NCI-H23 > 100 µM | SK-MEL-5 > 100 µM | DU-145 > 100 µM | MDA-MB-435 > 100 µM | NCI/ADR-RES > 100 µM
